The values below come from patent EP0728012B1, “NOVEL GnRH ANALOGUES WITH ANTITUMOUR EFFECTS AND PHARMACEUTICAL COMPOSITIONS THEREOF” (Lovas, Sandor, priority 1994, dated 1996).

Assay [1] concerns MCF-7. The assay can be described thus: Inhibition of colony formation by GnRH analogues (dose-survival, Example 48). It is filed as cell-based, human. The following applies: treated once. The protocol:
(§1) The examination gives accurate information about the cell-damaging effect of the substance tested as a function of varying doses. The treatment was carried out once; the colonies formed from the surviving cells were counted after 8 - 12 days. […] A part of the arrested cells again entered the cycle, another part of them might be destroyed (apoptosis). […] In the case of a dose-response investigation, colonies containing less than 15 cells were not counted. 300 cells were put into each Petri dishes of 3.5 cm in diameter. The treatment was once carried out 24 hours after setting, then the colonies formed were counted after 8 - 12 days. The cells were treated once after 24 hours with 1-50 µM of various GnRH analogues of Examples above or with 1 - 50 µM of GnRH-III, respectively. The percentages of inhibition obtained on MCF-7, MDA-MB-231, PC3 and Ishikawa cells, respectively, together with the dose of the active agent used are shown in Table VIII.

The test system of assay [2] is MDA-MB-231. Described as above. The assay is classed as cell-based, human. The protocol: as §1
Another assay concerns Ishikawa. Described as above. The following applies: 50 µM. The assay is classed as cell-based, human. The protocol: as §1
Another assay concerns PC3. The assay is described as above. The following applies: for % Inhibition of the colony formation: 50 µM. It is filed as cell-based, human. The protocol: as §1
A further assay concerns human tumour cell lines. The assay can be described thus: Inhibition of colony formation (Example 48), comparison with the control D-Trp^6-hGnRH. It is filed as cell-based. As to conditions: data of Table VIII. The protocol: as §1
In these studies the D-Trp^6-hGnRH analogue (Sigma Co.) commonly used in the tumour therapy was employed as control.

The test system of assay [3] is MCF-7 human mammary carcinoma cell line. The experiment in a line: Inhibition of colony formation (dose-survival relation, Example 18). The following applies: for inhibition of colony formation: concentration not given; for % Inhibition of colony formation: 50 µM (active substance), treated once. It is filed as cell-based. The protocol: (§2) In the case of cytostatics the cell-damaging effect is not cell-specific. […] One part of the arrested cells again go into the cycle, the other part may perish (apoptosis). […] The investigations were carried out on MCF-7 and MDA-MB-231 human mammary carcinoma cell lines, PC3 human prostate 15 carcinoma cell line and Ishikawa human endometrium carcinoma cell line. Three hundred cells were set into Petri dishes of 3.5 cm in diameter each. The treatment was carried out once, 24 hours following the explantation, then the colonies formed were counted after 9 to 12 days.

Assay [4] concerns Ishikawa human endometrium carcinoma cell line. The description is as above. As to conditions: for inhibition of colony formation: concentration not given; for % Inhibition of colony formation: 50 µM. The assay is classed as cell-based. The protocol:
as §2

The subject of assay [5] is MCF-7. The following applies: MCF-7, 30 µM active substance, conjugate, treated once, cell count on 7th day. The protocol: (§3) The procedure of treatment was as follows. After trypsinization the cells, 400,000 cells of MCF-7, MDA-MB-231 human mammary carcinoma, PC3 human prostate carcinoma or Ishikawa human endometrium tumour each were passed into Petri dishes of 10 cm in diameter. Starting from the day following transfer, the cells were treated with the substances to be tested in solution prepared with the nutrient medium during the exponential growth phase. […]

In assay [6] the test system is MDA-MB-231. As to conditions: MDA-MB-231, 30 µM active substance, conjugate, treated once. The protocol:
as §3

Assay [7] relates to MDA-MB-231 human mammary carcinoma cell line. The assay can be described thus: Inhibition of colony formation (dose-survival relation, Example 18). As to conditions: for % Inhibition of colony formation: 50 µM. It is filed as cell-based. The protocol: as §2
Assay [8] concerns PC3 human prostate carcinoma cell line. The assay is described as above. It is filed as cell-based. As to conditions: for inhibition of colony formation: concentration not given. The protocol: as §2

Like-named read-outs stand apart in the source and are kept apart here. Non-standard residues stand in square brackets, D forms with d. Residues, ends and D or L forms follow the SMILES beside them. pGlu = O=C1CC[C@@H](C(=O)O)N1

Take `NCCCC[C@H](NC(=O)[C@H](CO)NC(=O)[C@H](Cc1c[nH]c2ccccc12)NC(=O)[C@H](Cc1c[nH]cn1)NC(=O)[C@@H]1CCC(=O)N1)C(=O)N[C@@H](CC(=O)O)C(=O)N[C@@H](Cc1c[nH]c2ccccc12)C(=O)N[C@@H](CCCCN)C(=O)N1CCC[C@H]1C(=O)NCC(N)=O` [2. Lys^5-GnRH-III, Lys^5-GnRH-III]: the “% Inhibition of the colony formation” value in the assay on MCF-7 [1] (50 µM) and with MDA-MB-231 [2] (50 µM) was 0% in each case.
As for `NCCCC[C@H](NC(=O)[C@H](Cc1c[nH]c2ccccc12)NC(=O)[C@H](CCC(=O)O)NC(=O)[C@H](Cc1c[nH]cn1)NC(=O)[C@H](CO)NC(=O)[C@H](Cc1c[nH]c2ccccc12)NC(=O)[C@H](Cc1c[nH]cn1)NC(=O)[C@@H]1CCC(=O)N1)C(=O)N1CCC[C@H]1C(=O)NCC(N)=O` [8. Glu^6-GnRH-III, Glu^6-GnRH-III], the “% Inhibition of the colony formation” value is 2% in the assay on Ishikawa, 44% in the assay with MCF-7 [1] (50 µM), 31% with PC3 and 25% in the assay on MDA-MB-231 [2] (50 µM). For the same molecule, in the assay with human tumour cell lines, the “inhibitory effect compared with the control D-Trp^6-hGnRH” value is given as “exceeded the inhibitory effect of control”.
Turning to `NCCCC[C@H](NC(=O)[C@H](Cc1cn(C=O)c2ccccc12)NC(=O)[C@H](CC(=O)O)NC(=O)[C@H](Cc1c[nH]cn1)NC(=O)[C@H](CO)NC(=O)[C@H](Cc1cn(C=O)c2ccccc12)NC(=O)[C@H](Cc1c[nH]cn1)NC(=O)[C@@H]1CCC(=O)N1)C(=O)N1CCC[C@H]1C(=O)NCC(N)=O` [14. [Trp(For-Ind)]^3,7- -GnRH-III, [Trp(For-Ind)]^3,7-GnRH-III], the “% Inhibition of the colony formation” value in the assay with Ishikawa is given as 24%; in the assay with MCF-7 [1] (50 µM) it was 31%. The “inhibitory effect compared with the control D-Trp^6-hGnRH” value with human tumour cell lines is recorded as “approximated the activity of the control”.
Regarding `NCCCC[C@H](NC(=O)[C@H](Cc1ccccc1)NC(=O)[C@H](CC(=O)O)NC(=O)[C@H](Cc1c[nH]cn1)NC(=O)[C@H](CO)NC(=O)[C@H](Cc1c[nH]c2ccccc12)NC(=O)[C@H](Cc1c[nH]cn1)NC(=O)[C@@H]1CCC(=O)N1)C(=O)N1CCC[C@H]1C(=O)NCC(N)=O` [15. Phe^7 -GnRH-III, Phe^7-GnRH-III], the “% Inhibition of the colony formation” value is reported as 26% in the assay on MCF-7 [1] (50 µM) and 21% with MDA-MB-231 [2] (50 µM). In addition, the “inhibitory effect compared with the control D-Trp^6-hGnRH” value in the assay with human tumour cell lines was “a weak if any effect”.
In the case of `CC(C)C[C@H](NC(=O)[C@@H](Cc1c[nH]c2ccccc12)NC(=O)[C@H](CCCCN)NC(=O)[C@H](CO)NC(=O)[C@H](Cc1c[nH]c2ccccc12)NC(=O)[C@H](Cc1c[nH]cn1)NC(=O)[C@@H]1CCC(=O)N1)C(=O)N[C@@H](CCCNC(=N)N)C(=O)N1CCC[C@H]1C(=O)NCC(N)=O` [17. Lys^5-DTrp^6-hGnRH, Lys^5,D-Trp^6-hGnRH] ([pGlu]HWSK[dW]LRPG-NH2), the “% Inhibition of the colony formation” value came to 17% in the assay on Ishikawa; 15% with Ishikawa (listed as compound 17, 50 µM); 39% in the assay with MCF-7 [1] (10 µM); 65% in the assay with MCF-7 [1] (50 µM); 18% in the assay on PC3; 30% in the assay with MDA-MB-231 [2] (10 µM). In addition, the “% Inhibition of the colony formation” value in the assay on MDA-MB-231 [2] (50 µM) was 63%. In the assay with PC3 (within the dose range used (1-50 µM)), the “inhibition of colony formation” value is given as “weakly inhibited”. For the same molecule, the “inhibitory effect compared with the control D-Trp^6-hGnRH” value in the assay with human tumour cell lines is “a twice stronger inhibition”.
In the case of `CC(C)C[C@H](NC(=O)[C@@H](Cc1c[nH]c2ccccc12)NC(=O)[C@H](Cc1ccc(O)cc1)NC(=O)[C@H](CO)NC(=O)[C@H](Cc1c[nH]c2ccccc12)NC(=O)[C@H](Cc1c[nH]cn1)NC(=O)[C@@H](N)CCC(=O)O)C(=O)N[C@@H](CCCNC(=N)N)C(=O)N1CCC[C@H]1C(=O)NCC(N)=O` [19. H-Glu^1,D-Trp^6 - hGnRH, H-Glu^1,D-Trp^6-hGnRH], the “% Inhibition of the colony formation” value in the assay with MCF-7 [1] (10 µM) is 16.8%; in the assay on MCF-7 [1] (50 µM) it was 32.7%. Besides, in the assay with human tumour cell lines, the “inhibitory effect compared with the control D-Trp^6-hGnRH” value is “approximated the activity of the control”.
As to `NCCCC[C@H](NC(=O)[C@H](Cc1c[nH]c2ccccc12)NC(=O)[C@H](CC(=O)O)NC(=O)[C@H](CCCCNC(=O)OCC1c2ccccc2-c2ccccc21)NC(=O)[C@H](CO)NC(=O)[C@H](Cc1c[nH]c2ccccc12)NC(=O)[C@H](Cc1c[nH]cn1)NC(=O)[C@@H]1CCC(=O)N1)C(=O)N1CCC[C@H]1C(=O)NCC(N)=O` [Example 26, [Lys(εFmoc)]^5-GnRH-III], the “inhibitory effect compared with the control D-Trp^6-hGnRH” value with human tumour cell lines is “a weak if any effect”.
For `NCCCC[C@H](NC(=O)[C@H](CO)NC(=O)[C@H](Cc1c[nH]c2ccccc12)NC(=O)[C@H](Cc1c[nH]cn1)NC(=O)[C@@H]1CCC(=O)N1)C(=O)N[C@H]1CC(=O)NCCCC[C@@H](C(=O)N2CCC[C@H]2C(=O)NCC(N)=O)NC(=O)[C@H](Cc2c[nH]c3ccccc23)NC1=O` [Lys^5, cyclo[Asp^6-Lys^8]-GnRH-III], the “% Inhibition of the colony formation” value came to 13% in the assay on Ishikawa and 44% in the assay on MCF-7 [1] (50 µM). Also, in the assay on human tumour cell lines, the “inhibitory effect compared with the control D-Trp^6-hGnRH” value is listed as “exceeded the inhibitory effect of control”. Besides, the “inhibition of colony formation” value in assay [3] amounted to 44%; in assay [4], 13%.
As to “Ac-D-Trip^1,3,D-Cpa^2,{Lys[n-poly(N-vinylpyrrolidone-co-maleic acid)-Gly-Leu-Gly-]}^5,[a-Asp(DEA)]^6, D-Ala^10-GnRH [P-GLG-1892]”, the entries for the “% Inhibition of cell division (proliferation)” value with MCF-7 [5] (listed as 13. P-GLG-MI-1892) and in the assay with MDA-MB-231 [6] (listed as 13. P-GLG-MI-1892) were 33% and 35%, respectively.
“Ac-D-Trp^1,3,D-Cpa^2,{Lys[n-poly(N-vinylpyrrolidone-co-maleic acid)-Phe-Leu-Gly-]}^5,a-Asp (DEA)]^6,D-Ala^10-GnRH [P-FLG-1892]”: the “% Inhibition of cell division (proliferation)” value in the assay with MCF-7 [5] (listed as 12. P-FLG-MI-1892) is 33%; in the assay on MDA-MB-231 [6] (listed as 12. P-FLG-MI-1892) it was 35%.
“pGlu-His-Trp-Ser-Tyr-D-Trp-Leu-Arg-Pro-Gly-NH2 [D-Trp^6-hGnRH (Decapeptyl), reference compound]”: the “% Inhibition of the colony formation” value with MCF-7 [1] (10 µM) came to 17.1%; in the assay with MCF-7 [1] (50 µM) it was 36.7%; in the assay with MDA-MB-231 [2] (10 µM), 15.7%; with MDA-MB-231 [2] (50 µM), 38.7%.
Regarding “{Lys[n-poly(N-vinylpyrrolidone-co-maleic acid)-Gly-Phe-Leu-Gly-]}^4,-GnRH-III [P-GFLG-Lys^4-GnRH-III]”, the “% Inhibition of colony formation” value in assay [3] is given as 68%; in assay [7], 75%; in [4], 25%; in assay [8] (30 µM) it was 94%. In addition, the “inhibition of colony formation” value in assay [3] worked out at 68%; in assay [7] (concentration not given), 75%; in assay [4], 25%; in assay [8] it was 94%.
Consider “{Lys[n-poly(N-vinylpyrrolidone-co-maleic acid)-Gly-Phe-Leu-Gly-]}^5,cyclo(Asp^6-Lys^8)-GnRH-III [P-GFLG-Lys^5-cyclo(Asp^6,Lys^8)-GnRH-III]”, for which the “% Inhibition of colony formation” value is listed as 78% in assay [3], 82% in [7], 19% in assay [4] and 100% in assay [8] (50 µM). Further, the “inhibition of colony formation” value in assay [4] was 19%; in assay [8], 100%.
